Data as given in US8889721B2, “Clothianidin, metofluthrin, and piperonyl butoxide mixture for bed bug control” (priority 2012, dated 2014).

What was measured:
[1] = system: Winston Salem-strain bed bugs; assay: Residual exposure to mixtures on wood panels, mortality/morbidity and knockdown (Example 7); format: in vivo, Cimex lectularius
Protocol: (§1) A bioassay was performed to determine the knockdown and mortality rates of bed bugs exposed to the residual of mixtures of clothianidin, metofluthrin, and PBO. Two bed bug (Cimex lectularius) strains were used; Harlan-strain which is susceptible to pyrethroids, and Winston Salem-strain which is known to have a 500-fold resistance level to deltamethrin. In this bioassay, a mixture of clothianidin, metofluthrin, and PBO with fumed silica was compared to combinations of clothianidin and metofluthrin, clothianidin and PBO, and clothianidin.
(§2) Unpainted wood was cut into 6 inch square panels and a DeVries spray booth was used to deliver 1 ml of test substance in an even spray that provided approximately 1 gal/1000 sq. ft. delivery rate. A cone jet nozzle was used approximately 12 inches directly above the wood panels. The panels were allowed to dry and then aged indoors in a climate controlled environment with temperatures ranging from approximately 65 to 72 degrees Fahrenheit. All tests were done in 4 replicates (40 total insects per treatment).
(§3) Insects were fed a blood meal the day prior to testing. The inner walls of Petri dishes were treated with Fluon to prevent the insects from attaching to the sides of the dishes during treatment.
(§4) On the day of testing, 10 insects were placed in each Petri dish. The bed bugs were separated with tweezers and observed to be healthy and active before treatments. The Petri dishes were inverted onto the treated surface and gentle tapping was sometimes used to dislodge the insects from the dishes. After 5 minutes, the insects were returned to containers for mortality/morbidity and knockdown observations.
(§5) Insects were considered moribund when they were knocked down and unable to right themselves when probed. Insects were considered dead when they had no body movement. Untreated controls were handled in the same manner except that they were exposed to water treated wood panels.
(§6) Insects were exposed to the wood panels on day 1 and day 30. Mortality and morbidity observations were taken until the untreated control mortality reached […] (day 7 following exposure).
(§7) The bed bugs were observed and recordings were taken at 10, 20, 30, 60 and 240 minutes following exposure to the wood panels. Table 4 provides the percentage of bed bugs from all 4 replicates (40 total insects per treatment) that were knocked down 10 and 240 minutes after exposure to the wood panels.

[2] = system: Harlan-strain bed bugs; assay: as above; format: in vivo, Cimex lectularius; conditions: for % Morbidity / % Mortality: Residual Efficacy at Day 30
Protocol: as §1, §2, §3, §4, §5, §6, §7

[3] = Residual Efficacy at Day 1, 1 day
[4] = Residual Efficacy at Day 1, 2 day
[5] = Residual Efficacy at Day 1, 3 day
[6] = Residual Efficacy at Day 30, 1 DAT
[7] = Residual Efficacy at Day 30, 2 DAT
[8] = Residual Efficacy at Day 30, 3 DAT
[9] = Residual Efficacy at Day 30, 4 DAT
[10] = Residual Efficacy at Day 30, 5 DAT
[11] = Residual Efficacy at Day 30, 6 DAT
[12] = Residual Efficacy at Day 30, 7 DAT

Work on `CN/C(=N\[N+](=O)[O-])NCc1cnc(Cl)s1` [0.4% Cloth.] yielded a Knockdown ([1]; Day 1 @ 10 minutes) of 0%, a Knockdown ([1]; Day 1 @ 240 minutes) of 50% and a Knockdown ([1]; Day 30 @ 10 minutes) of 3%. The Knockdown ([1]; Day 30 @ 240 min) was 28%, the “% Morbidity” value [1, 3] was 18% and the “% Mortality” value [1, 3] was 60%. The “% Mortality + Morbidity” value [1, 3] was 78%, the “% Morbidity” value [1, 4] was 18% and the “% Mortality” value [1, 4] was 60%. The “% Mortality + Morbidity” value [1, 4] was 78%, the “% Morbidity” value [1, 5] was 12.5% and the “% Mortality” value [1, 5] was 87.5%. The “% Mortality + Morbidity” value [1, 5] was 100%, the “% Morbidity” value [1, 6] was 33% and the “% Mortality” value [1, 6] was 10%. The “% Morbidity” value [1, 7] was 28%, the “% Mortality” value [1, 7] was 20% and the “% Morbidity” value [1, 8] was 18%. The “% Mortality” value [1, 8] was 43%, the “% Morbidity” value [1, 9] was 10% and the “% Mortality” value [1, 9] was 53%. The “% Morbidity” value [1, 10] was 8%, the “% Mortality” value [1, 10] was 63% and the “% Morbidity” value [1, 11] was 3%. The “% Mortality” value [1, 11] was 70%, the “% Morbidity” value [1, 12] was 5% and the “% Mortality” value [1, 12] was 70%. The Knockdown ([2]; Day 1 @ 10 minutes) was 48%, the Knockdown ([2]; Day 1 @ 240 minutes) was 95% and the Knockdown ([2]; Day 30 @ 10 minutes) was 20%. For the same compound, the Knockdown ([2]; Day 30 @ 240 min) was 95%, the “% Morbidity” value ([2]; 1 DAT) was 75% and the “% Mortality” value ([2]; 1 DAT) was 23%. For the same compound, the “% Morbidity” value ([2]; 2 DAT) was 33%, the “% Mortality” value ([2]; 2 DAT) was 68% and the “% Morbidity” value ([2]; 3 DAT) was 0%. The “% Mortality” value ([2]; 3 DAT) was 100%.
